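These data come from cells grown in 96-well plates and exposed to compound for 48 hours at five concentrations. The concentration for full growth arrest is given as TGI.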
How the values were obtained:
Experiment in all cases: NCI tumour cell line growth inhibition, 48 h
[1] = system: 786-0 renal
[2] = system: A498 renal
[3] = system: A549 NSCLC
[4] = system: ACHN renal
[5] = system: BT-549 breast
[6] = system: CAKI-1 renal
[7] = system: CCRF-CEM leukemia
[8] = system: COLO 205 colon
[9] = system: DU-145 prostate
[10] = system: EKVX NSCLC
[11] = system: HCC-2998 colon
[12] = system: HCT-116 colon
[13] = system: HCT-15 colon
[14] = system: HL-60(TB) leukemia
[15] = system: HOP-62 NSCLC
[16] = system: HOP-92 NSCLC
[17] = system: HS 578T breast
[18] = system: HT29 colon
[19] = system: IGROV1 ovarian
[20] = system: K-562 leukemia
[21] = system: KM12 colon
[22] = system: LOX IMVI melanoma
[23] = system: M14 melanoma
[24] = system: MALME-3M melanoma
[25] = system: MCF7 breast
[26] = system: MDA-MB-231 breast
[27] = system: MDA-MB-435
[28] = system: MDA-N
[29] = system: NCI-H226 lung
[30] = system: NCI-H23 lung
[31] = system: NCI-H460 lung
[32] = system: NCI-H522 lung
[33] = system: NCI/ADR-RES ovarian
[34] = system: OVCAR-3 ovarian
[35] = system: OVCAR-4 ovarian
[36] = system: OVCAR-5 ovarian
[37] = system: OVCAR-8 ovarian
[38] = system: PC-3 prostate
[39] = system: RPMI-8226 leukemia
[40] = system: RXF 393 renal
[41] = system: SF-268 CNS
[42] = system: SF-295 CNS
[43] = system: SF-539 CNS
[44] = system: SK-MEL-2 melanoma
[45] = system: SK-MEL-28 melanoma
[46] = system: SK-MEL-5 melanoma
[47] = system: SK-OV-3 ovarian
[48] = system: SN12C renal
[49] = system: SNB-19 CNS
[50] = system: SNB-75 CNS
[51] = system: SR leukemia
[52] = system: SW-620 colon
[53] = system: T-47D breast
[54] = system: TK-10 renal
[55] = system: U251 CNS
[56] = system: UACC-257 melanoma
[57] = system: UACC-62 melanoma
[58] = system: UO-31 renal
[59] = system: MOLT-4 leukemia

Measured: TGI

COc1ccc(C=Nc2c(O)ccc3ccccc23)cc1OC
35.1 µM: [28]
70.9 µM: [34]
59 µM: [16]
> 100 µM: [1] | [2] | [3] | [4] | [5] | [6] | [7] | [8] | [9] | [10] | [11] | [12] | [13] | [14] | [15] | [17] | [18] | [19] | [20] | [21] | [22] | [23] | [25] | [26] | [29] | [30] | [31] | [33] | [35] | [36] | [37] | [38] | [39] | [40] | [41] | [42] | [43] | [44] | [45] | [46] | [47] | [48] | [49] | [50] | [51] | [52] | [53] | [54] | [55] | [56] | [57] | [58]
64.2 µM: [32]
41.2 µM: [24]
33.4 µM: [27]

COC(=O)C12CCC(C(F)(F)C1=O)C2(C)C (centres undefined)
> 100 µM: [1] | [2] | [3] | [4] | [5] | [6] | [8] | [9] | [11] | [12] | [13] | [14] | [15] | [16] | [17] | [18] | [19] | [21] | [22] | [23] | [24] | [25] | [26] | [27] | [28] | [59] | [29] | [30] | [31] | [32] | [33] | [34] | [35] | [36] | [37] | [38] | [39] | [40] | [41] | [42] | [43] | [44] | [45] | [46] | [47] | [48] | [49] | [50] | [51] | [52] | [53] | [54] | [55] | [56] | [57] | [58]

CN1CCc2c(sc3ncn(N)c(=N)c23)C1
> 100 µM: [1] | [2] | [3] | [4] | [5] | [6] | [7] | [9] | [10] | [12] | [13] | [14] | [15] | [16] | [17] | [18] | [19] | [20] | [21] | [22] | [23] | [24] | [25] | [26] | [27] | [28] | [59] | [29] | [30] | [31] | [32] | [33] | [34] | [35] | [36] | [37] | [38] | [39] | [40] | [41] | [42] | [43] | [44] | [45] | [46] | [47] | [48] | [49] | [50] | [51] | [52] | [53] | [54] | [55] | [56] | [57]

S=C1NCN2CCN(CC2)CNC(=S)C(=S)NCN2CCN(CC2)CNC1=S
98.9 µM: [34]
97.3 µM: [39]
46.3 µM: [31]
> 100 µM: [1] | [2] | [3] | [4] | [5] | [6] | [8] | [9] | [10] | [11] | [12] | [13] | [14] | [15] | [16] | [17] | [18] | [19] | [20] | [21] | [23] | [24] | [25] | [26] | [27] | [28] | [29] | [30] | [32] | [33] | [35] | [36] | [37] | [38] | [40] | [41] | [42] | [44] | [45] | [46] | [47] | [48] | [49] | [50] | [51] | [52] | [53] | [54] | [55] | [56] | [57] | [58]
56.4 µM: [22]
62.3 µM: [7]

CC(C)c1cc(C(F)(F)F)nc(NNc2nc(C(C)C)cc(C(F)(F)F)n2)n1
86.4 µM: [15]
> 100 µM: [1] | [2] | [3] | [4] | [5] | [6] | [7] | [8] | [9] | [10] | [12] | [13] | [14] | [16] | [17] | [18] | [19] | [20] | [21] | [23] | [24] | [25] | [26] | [27] | [28] | [59] | [29] | [30] | [31] | [32] | [33] | [35] | [36] | [37] | [38] | [39] | [40] | [41] | [42] | [43] | [44] | [45] | [46] | [47] | [48] | [49] | [51] | [52] | [53] | [55] | [56] | [57] | [58]
95.8 µM: [50]
85.5 µM: [34]
56.1 µM: [54]

From PubChem BioAssay (NCI)
